This test has as its system BDF1 mice, Adenocarcinoma 755 s.c., tumor weight T/C. The test can be described thus: NCI In Vivo Anticancer Drug Screen. Data for tumor model Adenocarcinoma 755 (subcutaneous) in B6D2F1 (BDF1) mice. As to conditions: endpoint: mean tumor weight, higher = larger tumour. In outline: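 Readout: T/C, i.e. treated-group measurement over vehicle-control measurement. Endpoint is survival or tumor size in tumor-bearing mice given compound.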

Setting [1] is: dose: 15.0 mg/kg/injection, schedule: Q01DX011 (ip), vehicle: methylcellulose (MC).
The mark [2] stands for this setting: dose: 31.0 mg/kg/injection, schedule: Q01DX011 (ip), vehicle: methylcellulose (MC).
Setting [3] is: dose: 62.0 mg/kg/injection, schedule: Q01DX011 (ip), vehicle: methylcellulose (MC).
Where [4] appears, read: dose: 125.0 mg/kg/injection, schedule: Q01DX011 (ip), vehicle: methylcellulose (MC).
Setting [5] is: dose: 250.0 mg/kg/injection, schedule: Q01DX011 (ip), vehicle: methylcellulose (MC).
Setting [6] is: dose: 12.5 mg/kg/injection, schedule: Q01DX011 (ip), vehicle: methylcellulose (MC).
The mark [7] stands for this setting: dose: 25.0 mg/kg/injection, schedule: Q01DX011 (ip), vehicle: methylcellulose (MC).
Where [8] appears, read: dose: 25.0 mg/kg/injection, schedule: Q01DX011 (ip), vehicle: carboxymethylcellulose (CMC).
The mark [9] stands for this setting: dose: 75.0 mg/kg/injection, schedule: Q01DX011 (ip), vehicle: carboxymethylcellulose (CMC).

Data on 17 compounds can be found in PubChem BioAssay AID180 (DTP/NCI, 2004).

Values joined by “and” are separate entries in the source; they are usually repeats but may differ in a detail not shown here. Equal values may be shown once.

By T/C is commonly meant the result in the treated group divided by that in the control group, in per cent. For `Cc1cn(C2CCCCC2)c(=O)n(-c2ccccc2)c1=O`, the T/C under setting [1] was 108 % of control; the T/C under setting [2] was 91 % of control; the T/C under setting [3] is 93 % of control; the T/C under setting [4] is 96 % of control; the T/C under setting [5] was 88 % of control.

As to `CC1CN1P(=S)(N1CCCC1)N1CC1C` (stereo not given), the T/C runs as follows: (dose: 14.0 mg/kg/injection, schedule: Q01DX011 (ip), vehicle: carboxymethylcellulose (CMC)) 82 % of control; (dose: 14.0 mg/kg/injection, schedule: Q01DX011 (ip), vehicle: saline) 63 % of control; (dose: 28.0 mg/kg/injection, schedule: Q01DX011 (ip), vehicle: carboxymethylcellulose (CMC)) 58 % of control; (dose: 28.0 mg/kg/injection, schedule: Q01DX011 (ip), vehicle: saline) 43 % of control; (dose: 57.0 mg/kg/injection, schedule: Q01DX011 (ip), vehicle: carboxymethylcellulose (CMC)) 15 % of control; (dose: 57.0 mg/kg/injection, schedule: Q01DX011 (ip), vehicle: saline) 21 % of control.

On to `Nc1nc(Oc2ccc(Cl)cc2)c2n[nH]nc2n1`, for which the T/C (dose: 200.0 mg/kg/injection, schedule: Q01DX011 (ip), vehicle: carboxymethylcellulose (CMC)) was 66 % of control.

Take `CC(C)Cn1cnc2c(Sc3c([N+](=O)[O-])ncn3C)nc(N)nc21`: the T/C is 71 % of control (dose: 0.2 mg/kg/injection, schedule: Q01DX011 (ip), vehicle: methylcellulose (MC)); 70 % of control (dose: 0.39 mg/kg/injection, schedule: Q01DX011 (ip), vehicle: methylcellulose (MC)); 68 % of control (dose: 0.78 mg/kg/injection, schedule: Q01DX011 (ip), vehicle: methylcellulose (MC)); 48 % of control (dose: 3.12 mg/kg/injection, schedule: Q01DX011 (ip), vehicle: methylcellulose (MC)); 22 % of control (dose: 6.25 mg/kg/injection, schedule: Q01DX011 (ip), vehicle: methylcellulose (MC)); 7 % of control under setting [6]. In addition, the T/C under setting [7] is 2 % of control.

On to `C[C@]12C[C@H](O)[C@H]3[C@@H](CCC4=CC(=O)CC[C@@]43C)[C@@H]1CC[C@@H]2C(=O)CF`, for which the T/C by setting is: (dose: 25.0 mg/kg/injection, schedule: Q01DX011 (sc), vehicle: steriod suspending solution) 121 % of control; (dose: 200.0 mg/kg/injection, schedule: Q01DX011 (sc), vehicle: steriod suspending solution) 79 % of control; (dose: 400.0 mg/kg/injection, schedule: Q01DX011 (sc), vehicle: steriod suspending solution) 79 % of control.

For `CSc1nc(N)nc2c1ncn2CCCl`, the T/C was 65 % of control (dose: 10.0 mg/kg/injection, schedule: Q01DX011 (ip), vehicle: saline); 70 % of control (dose: 20.0 mg/kg/injection, schedule: Q01DX011 (ip), vehicle: saline); 73 % of control (dose: 40.0 mg/kg/injection, schedule: Q01DX011 (ip), vehicle: saline); 74 % of control (dose: 80.0 mg/kg/injection, schedule: Q01DX011 (ip), vehicle: saline).

In the case of `c1ccc(N2CCSCC2)cc1`, for the setting “dose: 40.5 mg/kg/injection, schedule: Q01DX011 (ip), vehicle: methylcellulose (MC)”, the T/C was 16 % of control and 28 % of control.

For `Nc1nc(=S)c2ncn(C3OC(COC(=O)c4ccccc4)C(OC(=O)c4ccccc4)C3OC(=O)c3ccccc3)c2[nH]1` (stereo not given), the T/C under setting [6] is 52 % of control; the T/C under setting [7] was 49 % of control; the T/C (dose: 50.0 mg/kg/injection, schedule: Q01DX011 (ip), vehicle: methylcellulose (MC)) was 7 % of control; the T/C (dose: 100.0 mg/kg/injection, schedule: Q01DX011 (ip), vehicle: methylcellulose (MC)) was 3 % of control.

In the case of `Brc1ccc(CSc2ncnc3nc[nH]c23)cc1`, the T/C is 70 % of control (dose: 43.75 mg/kg/injection, schedule: Q01DX011 (ip), vehicle: methylcellulose (MC)); 28 % of control (dose: 87.5 mg/kg/injection, schedule: Q01DX011 (ip), vehicle: methylcellulose (MC)); 10 % of control (dose: 175.0 mg/kg/injection, schedule: Q01DX011 (ip), vehicle: methylcellulose (MC)); 1 % of control (dose: 350.0 mg/kg/injection, schedule: Q01DX011 (ip), vehicle: methylcellulose (MC)).

In the case of `CC(=O)OCC(=O)[C@@]1(O)CC[C@H]2[C@@H]3C[C@H](C)C4=CC(=O)CC[C@]4(C)[C@H]3[C@@H](O)C[C@@]21C`, the T/C (dose: 2.75 mg/kg/injection, schedule: Q01DX011 (sc), vehicle: steriod suspending solution) was 73 % of control; the T/C (dose: 5.5 mg/kg/injection, schedule: Q01DX011 (sc), vehicle: steriod suspending solution) is 55 % of control and 71 % of control; the T/C (dose: 22.0 mg/kg/injection, schedule: Q01DX011 (sc), vehicle: water) is 19 % of control; the T/C (dose: 44.0 mg/kg/injection, schedule: Q01DX011 (sc), vehicle: steriod suspending solution) is 42 % of control; the T/C (dose: 44.0 mg/kg/injection, schedule: Q01DX011 (sc), vehicle: water) was 14 % of control and 20 % of control; the T/C (dose: 87.0 mg/kg/injection, schedule: Q01DX011 (sc), vehicle: steriod suspending solution) is 50 % of control. Further, the T/C is 11 % of control and 15 % of control (dose: 87.5 mg/kg/injection, schedule: Q01DX011 (sc), vehicle: water); 25 % of control (dose: 175.0 mg/kg/injection, schedule: Q01DX011 (sc), vehicle: steriod suspending solution); 3 % of control and 4 % of control (dose: 175.0 mg/kg/injection, schedule: Q01DX011 (sc), vehicle: water).

In the case of `NS(=O)(=O)c1nc(=S)c2[nH]cnc2[nH]1`, the T/C runs as follows: under setting [8], 108 % of control; under setting [9], 117 % of control; (dose: 225.0 mg/kg/injection, schedule: Q01DX011 (ip), vehicle: carboxymethylcellulose (CMC)) 79 % of control.

As to `CCOP(=O)(O)OCC1OC(n2cnc3c(=S)nc[nH]c32)C(O)C1O` (stereo not given), the T/C reads like this: (dose: 3.0 mg/kg/injection, schedule: Q01DX011 (ip), vehicle: carboxymethylcellulose (CMC)) 12 % of control; (dose: 6.0 mg/kg/injection, schedule: Q01DX011 (ip), vehicle: carboxymethylcellulose (CMC)) 2 % of control; (dose: 12.0 mg/kg/injection, schedule: Q01DX011 (ip), vehicle: carboxymethylcellulose (CMC)) 4 % of control.

For the compound `O=S1(=O)CCCO1`, the T/C (dose: 80.0 mg/kg/injection, schedule: Q01DX011 (ip), vehicle: carboxymethylcellulose (CMC)) was 32 % of control and 33 % of control.

For the compound `Nc1nc(SCc2ccccc2[N+](=O)[O-])c2[nH]cnc2n1`, the T/C by setting is: (dose: 3.7 mg/kg/injection, schedule: Q01DX011 (ip), vehicle: carboxymethylcellulose (CMC)) 95 % of control; (dose: 7.5 mg/kg/injection, schedule: Q01DX011 (ip), vehicle: carboxymethylcellulose (CMC)) 90 % of control; (dose: 15.0 mg/kg/injection, schedule: Q01DX011 (ip), vehicle: carboxymethylcellulose (CMC)) 68 % of control; (dose: 30.0 mg/kg/injection, schedule: Q01DX011 (ip), vehicle: carboxymethylcellulose (CMC)) 67 % of control; (dose: 37.5 mg/kg/injection, schedule: Q01DX011 (ip), vehicle: carboxymethylcellulose (CMC)) 2 % of control; under setting [9], 1 % of control. In addition, where the note is “dose: 300.0 mg/kg/injection, schedule: Q01DX011 (ip), vehicle: carboxymethylcellulose (CMC)”, the T/C was 4 % of control.

Take `N#CCCNC(=O)Nc1ccccc1`: the T/C under setting [1] is 63 % of control; the T/C under setting [2] is 74 % of control; the T/C under setting [3] was 58 % of control; the T/C under setting [4] was 101 % of control; the T/C under setting [5] is 93 % of control.

On to `CN(C)c1nc(N)nc(Nc2ccc(Br)cc2)c1N=O`, for which the T/C by setting is: (dose: 12.5 mg/kg/injection, schedule: Q01DX011 (ip), vehicle: carboxymethylcellulose (CMC)) 40 % of control; under setting [8], 51 % of control.

Take `CCOc1ccccc1Nc1cc(Cl)nc(N)n1`: the T/C under setting [1] was 96 % of control; the T/C under setting [2] was 66 % of control; the T/C under setting [3] is 70 % of control; the T/C under setting [4] is 95 % of control; the T/C under setting [5] is 70 % of control.
